Results on one compound are retold here after publication PMC6934184, “Selective DNA-PKcs inhibition extends the therapeutic index of localized radiotherapy and chemotherapy” (The Journal of Clinical Investigation, 2019).

The target of the experiment is T1, STK38L (NDR2) (Homo sapiens, UniProt Q9Y2H1).
T1 construct: purchased Thermo Fisher Scientific (Life Technologies) SelectScreen
Put plainly: SelectScreen LanthaScreen. Type of experiment: binding. The settings on record: read-out: % displacement. Summed up: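 Percent values come from Thermo SelectScreen profiling of NU5455, combining activity and binding assays. CSF1R was run in Z'LYTE format at Km app ATP, and CAMK1 in Adapta format with ATP listed at 10.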

T1 sequence (Q9Y2H1 whole entry): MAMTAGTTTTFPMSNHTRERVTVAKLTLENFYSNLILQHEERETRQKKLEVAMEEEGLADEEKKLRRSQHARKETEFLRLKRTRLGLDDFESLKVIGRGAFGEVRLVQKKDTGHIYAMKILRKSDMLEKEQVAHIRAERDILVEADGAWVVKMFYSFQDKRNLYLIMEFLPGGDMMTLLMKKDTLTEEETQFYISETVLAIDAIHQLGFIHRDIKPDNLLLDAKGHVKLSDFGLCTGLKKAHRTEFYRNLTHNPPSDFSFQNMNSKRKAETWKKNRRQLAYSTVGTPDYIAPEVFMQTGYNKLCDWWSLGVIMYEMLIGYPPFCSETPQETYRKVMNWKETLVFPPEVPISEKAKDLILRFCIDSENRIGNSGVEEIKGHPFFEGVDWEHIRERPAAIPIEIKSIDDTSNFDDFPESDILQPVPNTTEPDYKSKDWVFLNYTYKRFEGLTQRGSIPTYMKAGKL

In the case of `CN(C(=O)CN1CCOCC1)c1ccc2sc3c(-c4cccc5c(=O)cc(N6CC7CCC(C6)O7)oc45)cccc3c2c1` [NU5455], the inhibition at 1 µM is -8.4%.
